Measured values reported in US20090023773A1, “COMPOSITIONS AND METHODS FOR MODULATING GATED ION CHANNELS” (PainCeptor Pharma Corporation, priority 2007, published 2009).

Assays:
hASIC1a = target: T1, hASIC1a (Homo sapiens, UniProt P78348); assay: Fluorescent calcium dye (Fluo-4-NW) assay in cells expressing hASIC1a (Example 1); assay type: cell-based; settings: CHO cells stably expressing hASIC1a, mild acidic buffer, increasing concentrations; FIGS. 1A-1C
T1 construct: expressed in transfected cells
T1 sequence (P78348 1-528): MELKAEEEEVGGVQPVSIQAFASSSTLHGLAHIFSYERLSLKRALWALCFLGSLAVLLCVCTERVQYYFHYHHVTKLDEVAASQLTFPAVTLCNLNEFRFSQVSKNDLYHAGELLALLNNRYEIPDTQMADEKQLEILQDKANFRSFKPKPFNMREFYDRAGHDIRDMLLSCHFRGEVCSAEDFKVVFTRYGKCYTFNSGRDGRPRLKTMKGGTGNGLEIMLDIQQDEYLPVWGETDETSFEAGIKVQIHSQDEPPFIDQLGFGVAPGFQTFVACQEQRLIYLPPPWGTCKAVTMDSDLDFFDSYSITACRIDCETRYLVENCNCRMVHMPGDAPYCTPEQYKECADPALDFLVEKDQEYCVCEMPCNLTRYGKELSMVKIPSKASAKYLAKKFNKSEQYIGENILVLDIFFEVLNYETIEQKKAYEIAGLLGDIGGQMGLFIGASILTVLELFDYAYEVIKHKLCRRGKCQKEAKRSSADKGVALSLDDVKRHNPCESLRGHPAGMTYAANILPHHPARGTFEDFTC
Procedure: ASIC1a expressing CHO cells are grown in culture medium (DMEM with 10% FBS), in polystyrene culture flasks ([…]) at 37° C. in a humidified atmosphere of 5% CO2. Confluency of cells should be 70-90% on day of plating. Cells are rinsed with 10 ml of PBS and cells are re-suspended by addition of culture medium and trituration with a 25 ml pipette. The cells are seeded at a density of approximately 10^4 cells/ml (50 μl/well and then brought to a total volume of 150 μl/well with culture medium, following 30 minutes incubation) in black-walled, clear bottom, 96-well plates pre-treated with poly-D-lysine (from BD Bioscience). Plated cells were allowed to proliferate for 48-72 h before loading with dye. Fluo-4-NW (500 μg, DiscoveRX) is dissolved in 110 μl DMSO. The Fluo-4-NW stock solution (1000×) is diluted with the assay buffer. A water soluble stock solution (100×) of probenicid (DiscoveRX) and a stock solution (1000×) of pluronic acid (P-127, Molecular Probes) are also added in the loading buffer containing Fluo-4NW dye. The culture medium is aspirated from the wells, and 100 μl of the Fluo-4-NW loading solution is added to each well. The cells are incubated at 37° C. for 30 min. followed by 30 min. incubation at room temperature. The assay buffer contains 90 mM NaCl, 5 mM KCl, 4 mM CaCl2, 0.8 mM MgSO4, 50 mM NMDG, 5 mM Glucose-D, 10 mM HEPES, pH 7.4. After the loading time, the loading buffer is not removed and the fluorescence is measured in FlexStation™ (Molecular Devices, USA), or any other suitable equipment known to the skilled in the art. Temperature: 25° C. First addition: 50 μl test solution at a rate of 26 μl/sec and a starting height of 125 μl. […] Reading intervals: pre-incubation—120 sec. antagonist phase, addition of MES at 145 sec. and reading time with agonist 100 sec (total run time of 240 sec.). Fluorescence obtained after stimulation is corrected for the mean basal fluorescence (in modified Assay Buffer). […] Gated-channel activity was determined by measuring intracellular calcium variation using a fluorescent calcium dye (Fluo-4-NW).

[1] = test system: acute paw inflammation caused by intraplantar injection of λ-carrageenan; assay: Carrageenan model for pain (Example 8); assay type: in vivo; settings: rat, 30 and 100 mg/kg SC, 4 h post-carrageenan
Procedure: Acute inflammatory hyperalgesia is induced in rats by unilateral injection of 150 μl of a 3% solution of λ-carrageenan into the plantar surface of the left hind paw 3-5 hours prior to testing. Thermal hyperalgesia, mechanical allodynia, mechanical hyperalgesia, weight bearing asymmetry and paw inflammation were determined. Rats are pretreated with test compounds either administered intravenously (IV), by subcutaneous injection (SC) or by oral gavage (PO).
Thermal nociceptive thresholds are determined according to the method described elsewhere (Hargreaves et al., 1988). Briefly, through the glass surface, a radiant heat source (8V, 50 W projector bulb) is focused onto the plantar surface of the hind paw. The rat's paw-withdrawal latency to this stimulus is recorded to the nearest 0.1 s. Each latency score is an average of three trials, which are separated by at least 5 min. In all rats, both the injured and uninjured hind paws are similarly tested, allowing direct comparisons between inflamed and non-inflamed paws. […]
Mechanical hyperalgesia is determined by measuring the difference of withdrawal thresholds in response to increasing pressure in the inflamed vs contralateral paw using the Randall-Sellito Paw pressure meter (IITC Life Science) (Randall L O and Sellito J J., 1957). Briefly, rats are held in a contention jacket suspended by a stand and allowed to acclimate for 10 min. Then the tips of the paw pressure applicator are positioned close to the middle of the plantar and the dorsal area of the paw, avoiding the saphenous nerve innervations and an increasing pressure is applied until the rat removes it. Measures are performed in triplicate for each paw by alternating each paw with an interval of at least 1 min to avoid sensitization. […]
Carrageenan induced paw oedema is measured with a plethysmometer (IITC Life Science). Briefly, a mark is made on the ankles of the rat and the ipsi and contralateral paw are submerged 3 times into water up to the mark in order to determine the paw volume by calculation of water displacement.

Row | inhibition of acid-induced hASIC1a activity (intracellular calcium variation) (hASIC1a) | Structure (SMILES) | mechanical hyperalgesia ([1]; 1 min prior to carrageenan) | size of the inflammation ([1]; 1 min prior to carrageenan) | thermal hyperalgesia ([1]; 1 min prior to carrageenan) | mechanical hyperalgesia ([1]; 30 min prior to carrageenan) | size of the inflammation ([1]; 30 min prior to carrageenan) | thermal hyperalgesia ([1]; 30 min prior to carrageenan)
1 | dose-dependently inhibited | Cc1cc(OC2CCN(Cc3ccccc3)CC2)c2cc(O)ccc2n1 [Compound 13, 4-(1-benzylpiperidin-4-yloxy)-2-methylquinolin-6-ol] | dose-dependently reversed | reduced | dose-dependently reversed |  |  | 
2 |  | Cc1ccc(-c2nc(Nc3ccc(C(=O)O)cc3)c3cc(Cl)ccc3n2)cc1 [Compound 124] |  |  |  | dose-dependently reversed | reduced | dose-dependently reversed
